Data: publication PMC8876231, “Analogues of Natural Chalcones as Efficient Inhibitors of AKR1C3” (Metabolites, 2022)

Columns and labels:
AKR1C2 = molecular target: T1, AKR1C2 (Homo sapiens, UniProt P52895); assay: AKR1C2 inhibition assay (DHT to 3α-androstanediol); assay type: biochemical; settings: 10 µM compound, mean ± SD
T1 construct: Myc (N); expressed in transfected cells; host or cells: HEK293
T1 sequence (P52895 1-323): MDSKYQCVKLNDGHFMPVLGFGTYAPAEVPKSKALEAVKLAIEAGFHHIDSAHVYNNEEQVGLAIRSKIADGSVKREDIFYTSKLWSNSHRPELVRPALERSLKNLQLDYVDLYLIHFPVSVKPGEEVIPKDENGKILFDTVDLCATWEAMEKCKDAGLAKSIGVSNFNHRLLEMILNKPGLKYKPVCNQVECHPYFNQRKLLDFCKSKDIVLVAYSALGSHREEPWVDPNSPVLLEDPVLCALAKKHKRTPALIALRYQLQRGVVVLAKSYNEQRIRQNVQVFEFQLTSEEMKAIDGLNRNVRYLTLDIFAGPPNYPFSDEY
From the text: For enzymatic assays and inhibitor testing, all enzymes were cloned into bacterial or mammalian expression vectors. AKR1C3 and the human hydroxysteroid dehydrogenases HSD17B1, HSD17B2, HSD17B4 (SDR domain), HSD17B7, and HSD17B10 were cloned into a pGEX vector as described in [71, 72]. The coding sequences for AKR1C1, AKR1C2, and AKR1C4 were cloned by Gateway technology into the pcDNA3-N-MycDest vector according to the manufacturer’s instructions (Life Technologies, Carlsbad, CA, USA). The p11 plasmid coding for HSD17B14 (S205 variant) was a gift from Udo Opperman SGC Oxford, UK. For assays with HSD17B3, HEK293 cells stably expressing HSD17B3 were used. Enzymes were expressed in E. coli BL21 DE3 or E. coli BL21 DE3 Codon Plus RP (Stratagene, San Diego, CA, USA) or in HEK293 cells as described in [71, 72, 73]. Bacterial and cell pellets were stored at −20 °C and −80 °C, respectively, until use.
Inhibition assays were carried out as described in [71, 74]. […] For a detailed assay setup, see Supplementary Table S6. The incubation at 37 °C was stopped with 0.21 M ascorbic acid in methanol:acetic acid 99:1 (v:v) after the time needed to convert approximately 30% of the substrate in a control assay with 1% DMSO, without inhibitor candidate. Substrates and products were extracted from the reaction mixture by solid-phase extraction using C18 cartridges (Phenomenex, Aschaffenburg, Germany) and separated by RP–HPLC in a Beckman–Coulter HPLC Gold system, using the Luna 5 µm C18(2), 125 × 4.0 mm column (Phenomenex). […] Radioactivity was detected by online scintillation counting by using a radioactivity monitor (LB506D, Berthold Technologies, Bad Wildbad, Germany). Conversion of substrates to products was determined by integration of the peak area of the substrate and product peaks in percent. […]

HEK293T cells = assay: Cell Titer Blue cell viability (cytotoxicity) assay; settings: 72 h, 1 µM to 100 µM tested
Experimental: For the cultivation of HEK293T cells, Dulbecco’s modified Eagle medium (DMEM, Pan Biotech GmbH, Aidenbach, Germany) supplemented with 10% FCS (Pan Biotech GmbH), 100 U/mL penicillin, and 100 µg/mL streptomycin (Pan Biotech GmbH) was used. The cells were cultured at 37 °C and 5% CO2 in constant humidity. Before cell seeding, culture flasks and multiwell plates were coated with collagen G (0.001% in PBS, Merck, Darmstadt, Germany).
For studying the cytotoxicity of the different chalcones and the positive control compounds cisplatin and etoposide on HEK293T cells, the Cell Titer® Blue (CTB) Cell Viability Assay was used (Promega, Mannheim, Germany). A total of 10,000 cells in a 200 µL culture medium were seeded into each well of a 96-well plate. Then, 24 h after seeding, the cells were treated with 0, 1, 2.5, 5, 7.5, 10, 15, 25, 50, or 100 µM of the different compounds (3 wells per compound and concentration) and incubated for an additional 72 h. For measurement of cell viability, 20 µL of CTB reagent were added to each well, and after 5 h at 37 °C, the metabolic activity was quantified by recording the fluorescence signal (λEx 560 nm, λEm 590 nm) on a Spark plate reader (Tecan Trading GmbH, Männedorf, Switzerland). […] Statistical significances were calculated by one-way ANOVA (Dunnett’s multiple comparison test), * p < 0.05, ** p < 0.005, *** p < 0.0002, **** p < 0.0001.

COc1ccc(/C=C/C(=O)c2c(O)cc(O)cc2OC)cc1 [Compound 18]
Inhibition of AKR1C2 at 10 µM in % (AKR1C2): not more than 42.3% | Inhibition of AKR1C2 at 10 µM in % (AKR1C2; listed as 18 (MF11)): 21.4 ± 5.1%

O=C(/C=C/c1ccc(Cl)cc1Cl)c1c(O)cc(O)cc1O [Compound 23, 2,4-dichloro-2′,4′,6′-trihydroxychalcone]
inhibition at 10 µM (AKR1C2): 94 ± 0.4% | Compound concentration at which HEK293T viability was significantly decreased (HEK293T cells): ≥ 50 µM

COc1cc(O)cc(O)c1C(=O)/C=C/c1ccc(Cl)cc1Cl [Compound 25]
Compound concentration at which HEK293T viability was significantly decreased (HEK293T cells): 7.5 µM
